{
  "source": "patent US7691864B2",
  "about": "“Anti-hypertensive composition and methods of treatment” (University of Florida, priority 1994, dated 2010)",
  "tested_on": "Male Sprague Dawley rats",
  "assay": "Blood pressure and heart rate in carotid-catheterized rats after I.P. dosing",
  "assay_type": "in vivo, rat",
  "experimental": "Male Sprague Dawley rats averaging 400 g were anesthetized with sodium pentobarbital, 50 mg/kg I.P. The animals' neck and shoulder areas were shaved and prepped for surgery. The carotid artery was isolated and clamped using an arterial hemostat. A nick was made in the artery and a segment of PE-50 intramedic tubing was inserted, directed towards the heart and tied into place. The tubing was then flushed with heparin (100 μ/ml) and skin tunneled to the shoulder area. A stylet was inserted into the tip of the catheter to prevent blood leakage. The external incisions were closed with 11 mm staples.\nThe animals were fasted and allowed to recover overnight. The following morning, the stylet was removed and the tubing flushed with the heparin solution. The rats were placed into individual cages and hooked up to a transducer/oscillograph. The animals were allowed to stabilize in the cages for one-half hour before any recordings began. The oscillograph was then turned on and baseline recordings of the heart rate and blood pressure were made. The rats were given diethylhomospermine in sterile normal saline at a dose of 121.9 or 10 mg/kg I.P. The animals' heart rate and blood pressure were evaluated at t=0, 0.5 (or 1), 3, 5, 10, 15 and 20 minutes post-drug.",
  "key": {"[1]": {"conditions": "10 mg/kg I.P., 10 min post-drug"}, "[2]": {"conditions": "10 mg/kg I.P., 15 min post-drug"}, "[3]": {"conditions": "10 mg/kg I.P., 20 min post-drug"}, "[4]": {"conditions": "10 mg/kg I.P., time 0 min (baseline)"}, "[5]": {"conditions": "121.9 mg/kg I.P., 0.5 min post-drug"}, "[6]": {"conditions": "121.9 mg/kg I.P., 3 min post-drug"}, "[7]": {"conditions": "121.9 mg/kg I.P., 5 min post-drug"}, "[8]": {"conditions": "121.9 mg/kg I.P., 10 min post-drug"}, "[9]": {"conditions": "121.9 mg/kg I.P., 15 min post-drug"}, "[10]": {"conditions": "121.9 mg/kg I.P., 20 min post-drug"}, "[11]": {"conditions": "121.9 mg/kg I.P., time 0 min (baseline)"}},
  "data": [
    {"smiles": "CCNCCCCNCCCCNCCCCNCC", "note": "[diethylhomospermine]", "values": [
      {"measurement": "Blood Pressure", "setting": "10 mg/kg I.P., 1 min post-drug", "value": "105/95"},
      {"measurement": "Heart Rate", "setting": "10 mg/kg I.P., 1 min post-drug", "value": 426, "unit": "b.p.m."},
      {"measurement": "Blood Pressure", "setting": "10 mg/kg I.P., 3 min post-drug", "value": "110/99"},
      {"measurement": "Heart Rate", "setting": "10 mg/kg I.P., 3 min post-drug", "value": 426, "unit": "b.p.m."},
      {"measurement": "Blood Pressure", "setting": "10 mg/kg I.P., 5 min post-drug", "value": "110/98"},
      {"measurement": "Heart Rate", "setting": "10 mg/kg I.P., 5 min post-drug", "value": 426, "unit": "b.p.m."},
      {"measurement": "Blood Pressure", "setting": "[1]", "value": "105/97"},
      {"measurement": "Heart Rate", "setting": "[1]", "value": 402, "unit": "b.p.m."},
      {"measurement": "Blood Pressure", "setting": "[2]", "value": "105/97"},
      {"measurement": "Heart Rate", "setting": "[2]", "value": 390, "unit": "b.p.m."},
      {"measurement": "Blood Pressure", "setting": "[3]", "value": "107/100"},
      {"measurement": "Heart Rate", "setting": "[3]", "value": 402, "unit": "b.p.m."},
      {"measurement": "Blood Pressure", "setting": "[4]", "value": "135/120"},
      {"measurement": "Heart Rate", "setting": "[4]", "value": 414, "unit": "b.p.m."},
      {"measurement": "Blood Pressure", "setting": "[5]", "value": "75/68"},
      {"measurement": "Heart Rate", "setting": "[5]", "value": 468, "unit": "b.p.m."},
      {"measurement": "Blood Pressure", "setting": "[6]", "value": "52/44"},
      {"measurement": "Heart Rate", "setting": "[6]", "value": 402, "unit": "b.p.m."},
      {"measurement": "Blood Pressure", "setting": "[7]", "value": "51/42"},
      {"measurement": "Heart Rate", "setting": "[7]", "value": 354, "unit": "b.p.m."},
      {"measurement": "Blood Pressure", "setting": "[8]", "value": "42/40"},
      {"measurement": "Heart Rate", "setting": "[8]", "value": 336, "unit": "b.p.m."},
      {"measurement": "Blood Pressure", "setting": "[9]", "value": "39/34"},
      {"measurement": "Heart Rate", "setting": "[9]", "value": 354, "unit": "b.p.m."},
      {"measurement": "Blood Pressure", "setting": "[10]", "value": "30/28"},
      {"measurement": "Heart Rate", "setting": "[10]", "value": 348, "unit": "b.p.m."},
      {"measurement": "Blood Pressure", "setting": "[11]", "value": "130/120"},
      {"measurement": "Heart Rate", "setting": "[11]", "value": 432, "unit": "b.p.m."}
    ]}
  ]
}
